ChEMBL document CHEMBL4190186 (Medchemcomm, 2016)
Calls of active or inactive are those of the source. The calls are words filed in the database; no cut-off is given here.

Assays:
T98G [1] = assay: Induction of apoptosis in PTEN/TP53 deficient human T98G cells assessed as increase in cleaved caspase-3 expression at 20 uM after 24 to 48 hrs by Western blot analysis; format: functional, cell-based
T98G [2] = assay: Cytotoxicity against PTEN/TP53 deficient human T98G cells assessed as cell death at 20 uM after 48 hrs by MTT assay relative to control; format: functional
T98G [3] = assay: Induction of apoptosis in PTEN/TP53 deficient human T98G cells assessed as increase in cleaved caspase-8 expression at 20 uM after 24 to 48 hrs by Western blot analysis; format: functional, cell-based
LN-18 [4] = assay: Induction of apoptosis in human LN18 cells harboring TP53 mutation assessed as increase in cleaved caspase-3 expression at 20 uM after 24 to 48 hrs by Western blot analysis; format: functional, cell-based
T98G [5] = assay: Effect on H3K27me3 levels in PTEN/TP53 deficient human T98G cells at 20 uM after 24 to 48 hrs by Western blot analysis; format: ADME, cell-based
LN-18 [6] = assay: Induction of apoptosis in human LN18 cells harboring TP53 mutation assessed as increase in cleaved caspase-9 expression at 20 uM after 24 to 48 hrs by Western blot analysis; format: functional, cell-based
LN-18 [7] = assay: Cytotoxicity against human LN18 cells harboring TP53 mutation assessed as cell death at 20 uM after 48 hrs by MTT assay relative to control; format: functional
LN-18 [8] = assay: Effect on H3K27me3 levels in human LN18 cells harboring TP53 mutation at 20 uM after 24 to 48 hrs by Western blot analysis; format: ADME, cell-based; details: ln-18, 20 µM
T98G [9] = assay: Induction of apoptosis in PTEN/TP53 deficient human T98G cells assessed as increase in cleaved caspase-9 expression at 20 uM after 24 to 48 hrs by Western blot analysis; format: functional, cell-based
LN-18 [10] = assay: Cytotoxicity against human LN18 cells harboring TP53 mutation after 48 hrs by MTT assay; format: functional, cell-based
NCI-H460 = assay: Cytotoxicity against human NCI-H460 cells; format: functional, cell-based
LN-18 [11] = assay: Induction of apoptosis in human LN18 cells harboring TP53 mutation assessed as increase in cleaved PARP expression at 20 uM after 24 to 48 hrs by Western blot analysis; format: functional, cell-based
T98G [12] = assay: Cytotoxicity against PTEN/TP53 deficient human T98G cells after 48 hrs by MTT assay; format: functional, cell-based
LN-18 [13] = assay: Induction of apoptosis in human LN18 cells harboring TP53 mutation assessed as increase in cleaved caspase-8 expression at 20 uM after 24 to 48 hrs by Western blot analysis; format: functional, cell-based
Astrocyte = assay: Cytotoxicity against rat primary cortical astrocytes assessed as reduction in cell viability at 5 to 40 uM after 48 hrs by MTT assay relative to control; format: cell-based
T98G [14] = assay: Induction of apoptosis in PTEN/TP53 deficient human T98G cells assessed as increase in cleaved PARP expression at 20 uM after 24 to 48 hrs by Western blot analysis; format: functional, cell-based

Question: Which results are given for `O=C1c2ccccc2C(=O)c2c(-c3ccccc3)nsc21`?
Answer: Activity (T98G [1]): inactive; Activity (T98G [2]): >50 - 70%; Activity (T98G [3]): inactive; Activity (LN-18 [4]): inactive; Activity (T98G [5]): Non-Toxic; Activity (LN-18 [6]): inactive; Activity (LN-18 [7]): >50 - 70%; Activity (LN-18 [8]): Non-Toxic; Activity (T98G [9]): inactive; Activity (LN-18 [10]): Dose-dependent effect; IC50 (NCI-H460): 360 nM; Activity (LN-18 [11]): inactive; Activity (T98G [12]): Dose-dependent effect; Activity (LN-18 [13]): inactive; Activity (Astrocyte): > 50%; Activity (T98G [14]): inactive

Question: Which Activity (T98G [2]) does the source give for `NNC(=O)/C=C/c1ccc(-c2ccccc2)cc1` here?
Answer: The Activity was “Active”.

Question: And the Activity (LN-18 [7])?
Answer: Its Activity is “Active”.

Question: `CN(C)c1nsc2c1C(=O)c1ccccc1C2=O` was tested. Which Activity (T98G [1]) did it give?
Answer: Its Activity is “inactive”.

Question: What about the Activity (T98G [2]) of the same compound?
Answer: The Activity was >50 - 70%.

Question: What about the Activity (T98G [3]) of the same compound?
Answer: Its Activity is “inactive”.

Question: What about the Activity (LN-18 [4]) of the same compound?
Answer: The Activity was “inactive”.

Question: And the Activity (T98G [5])?
Answer: Its Activity is “Non-Toxic”.

Question: What about the Activity (LN-18 [6]) of the same compound?
Answer: The Activity was “inactive”.

Question: And the Activity (LN-18 [7])?
Answer: The Activity was >50 - 70%.

Question: What about the Activity (LN-18 [8]) of the same compound?
Answer: The Activity was “Non-Toxic”.

Question: And the Activity (T98G [9])?
Answer: The Activity was “inactive”.

Question: And the Activity (LN-18 [10])?
Answer: The Activity was “Dose-dependent effect”.

Question: And the IC50 (NCI-H460)?
Answer: The IC50 was 220 nM.

Question: What about the Activity (LN-18 [11]) of the same compound?
Answer: The Activity was “inactive”.

Question: And the Activity (T98G [12])?
Answer: Its Activity is “Dose-dependent effect”.

Question: What about the Activity (LN-18 [13]) of the same compound?
Answer: Its Activity is “inactive”.

Question: And the Activity (T98G [14])?
Answer: Its Activity is “inactive”.

Question: For `Nc1nsc2c1C(=O)c1ccccc1C2=O`, which Activity (T98G [2]) is on record?
Answer: The Activity was >50 - 70%.

Question: And the Activity (LN-18 [7])?
Answer: The Activity was >50 - 70%.

Question: What about the IC50 (NCI-H460) of the same compound?
Answer: Its IC50 is 280 nM.

Question: How did the Activity (T98G [2]) turn out when `O=C1Nc2ccccc2/C1=C/c1ccc(-c2ccccc2)cc1` was run?
Answer: The Activity was “Active”.

Question: And the Activity (LN-18 [7])?
Answer: The Activity was “Active”.

Question: Which results are given for `O=C1/C(=C\c2ccc(O)cc2)c2ccccc2N1O`?
Answer: Activity (T98G [2]): inactive; Activity (LN-18 [7]): inactive

Question: Which Activity (T98G [2]) does the source give for `O=C(Nc1ccccc1)Nc1ccc(/C=C2\C(=O)N(O)c3ccccc32)cc1` here?
Answer: The Activity was “inactive”.

Question: And the Activity (LN-18 [7])?
Answer: Its Activity is “inactive”.

Question: `CON1C(=O)/C(=C\c2ccc(-c3ccccc3)cc2)c2ccccc21` was tested. Which Activity (T98G [2]) did it give?
Answer: The Activity was “Active”.

Question: And the Activity (LN-18 [7])?
Answer: The Activity was “Active”.

Question: `Cc1[nH]c2ccccc2c1/C=C/c1ccccc1-c1ccc(/C=C/C(=O)Nc2cc(-c3ccccc3)ccc2O)cc1` was tested. Which Activity (T98G [2]) did it give?
Answer: Its Activity is “Active”.

Question: And the Activity (LN-18 [7])?
Answer: The Activity was “Active”.

Question: `COc1ccc(-c2ccc(/C=C/C(=O)NO)cc2)cc1` was tested. Which Activity (T98G [2]) did it give?
Answer: The Activity was “Active”.

Question: What about the Activity (LN-18 [7]) of the same compound?
Answer: Its Activity is “Active”.

Question: What does the source list for `O=C1Nc2ccc(Cl)cc2/C1=C/c1ccc(-c2ccccc2)cc1`?
Answer: Activity (T98G [2]): Active; Activity (LN-18 [7]): Active

Question: With `O=C(/C=C/c1ccc(-c2ccccc2)cc1)NO` as the compound, how does the Activity (T98G [2]) read?
Answer: Its Activity is “Active”.

Question: What about the Activity (LN-18 [7]) of the same compound?
Answer: The Activity was “Active”.

Question: How did the Activity (T98G [2]) turn out when `NNC(=O)N/C=C/c1ccc(-c2ccccc2)cc1` was run?
Answer: Its Activity is “Active”.

Question: What about the Activity (LN-18 [7]) of the same compound?
Answer: The Activity was “Active”.

Question: `Cc1[nH]c2ccccc2c1/C=C/c1ccccc1-c1ccc(/C=C/C(=O)NO)cc1` was tested. Which Activity (T98G [1]) did it give?
Answer: The Activity was “Active”.

Question: What about the Activity (T98G [2]) of the same compound?
Answer: The Activity was greater than 70%.

Question: What about the Activity (T98G [3]) of the same compound?
Answer: Its Activity is “Active”.

Question: And the Activity (LN-18 [4])?
Answer: Its Activity is “Active”.

Question: What about the Activity (T98G [5]) of the same compound?
Answer: Its Activity is “Non-Toxic”.

Question: What about the Activity (LN-18 [6]) of the same compound?
Answer: The Activity was “Active”.

Question: What about the Activity (LN-18 [7]) of the same compound?
Answer: Its Activity is greater than 70%.

Question: What about the Activity (LN-18 [8]) of the same compound?
Answer: The Activity was “Non-Toxic”.

Question: What about the Activity (T98G [9]) of the same compound?
Answer: Its Activity is “Active”.

Question: And the Activity (LN-18 [10])?
Answer: The Activity was “Dose-dependent effect”.

Question: And the Activity (LN-18 [11])?
Answer: Its Activity is “Active”.

Question: What about the Activity (T98G [12]) of the same compound?
Answer: Its Activity is “Dose-dependent effect”.

Question: And the Activity (LN-18 [13])?
Answer: The Activity was “Active”.

Question: And the Activity (Astrocyte)?
Answer: Its Activity is “Non-Toxic”.

Question: What about the Activity (T98G [14]) of the same compound?
Answer: The Activity was “Active”.

Question: Which Activity (T98G [2]) does the source give for `O=C1/C(=C\c2ccc(-c3ccccc3)cc2)c2ccccc2N1O` here?
Answer: Its Activity is “Active”.

Question: And the Activity (LN-18 [7])?
Answer: The Activity was “Active”.

Question: What does the source list for `O=C(Nc1ccccc1)Nc1ccc(/C=C2\C(=O)Nc3ccccc32)cc1`?
Answer: Activity (T98G [2]): inactive; Activity (LN-18 [7]): inactive
